ChEMBL document CHEMBL5154877, “Novel Sphingosine Kinase 1 Inhibitor Suppresses Growth of Solid Tumor and Inhibits the Lung Metastasis of Triple-Negative Breast Cancer” (J Med Chem, 2022)

What was measured:
[1] = Tmax in mouse at 20 mg/kg, po; format: ADME, organism-based; conditions: in vivo
Sphingosine kinase 2 = biological target: T1, Sphingosine kinase 2 (Homo sapiens, UniProt Q9NRA0)
T1 sequence (Q9NRA0 whole entry): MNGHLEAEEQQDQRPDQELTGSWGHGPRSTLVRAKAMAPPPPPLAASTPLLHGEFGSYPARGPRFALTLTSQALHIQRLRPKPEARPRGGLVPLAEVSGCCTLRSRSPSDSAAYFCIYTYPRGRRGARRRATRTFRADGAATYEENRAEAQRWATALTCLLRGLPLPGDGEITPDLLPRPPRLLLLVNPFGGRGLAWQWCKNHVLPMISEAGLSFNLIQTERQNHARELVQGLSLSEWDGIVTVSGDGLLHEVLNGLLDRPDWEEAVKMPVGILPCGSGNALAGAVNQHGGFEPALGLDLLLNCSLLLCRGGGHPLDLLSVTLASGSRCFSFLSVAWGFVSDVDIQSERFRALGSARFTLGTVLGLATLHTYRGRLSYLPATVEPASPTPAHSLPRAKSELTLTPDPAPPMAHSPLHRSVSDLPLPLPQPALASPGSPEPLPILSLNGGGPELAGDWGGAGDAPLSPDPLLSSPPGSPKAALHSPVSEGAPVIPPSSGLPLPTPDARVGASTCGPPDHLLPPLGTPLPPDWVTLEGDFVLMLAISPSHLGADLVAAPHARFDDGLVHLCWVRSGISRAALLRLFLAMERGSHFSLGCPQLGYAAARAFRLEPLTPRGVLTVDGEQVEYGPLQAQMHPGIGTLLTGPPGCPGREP

[2] = AUClast in mouse at 20 mg/kg, po; format: ADME, organism-based; parameters: time 0 - last, dose 20 mg/kg, route po; conditions: in vivo
[3] = AUClast in mouse at 2 mg/kg, iv; format: ADME, organism-based; parameters: time 0 - last, dose 2 mg/kg, route iv; conditions: in vivo
[4] = Half life in mouse at 20 mg/kg, po; format: ADME, organism-based; conditions: in vivo
[5] = Oral bioavailability in mouse at 20 mg/kg; format: ADME, organism-based; conditions: in vivo
[6] = Cmax in mouse at 20 mg/kg, po; format: ADME, organism-based; parameters: dose 20 mg/kg, route po; conditions: in vivo
[7] = Clearance in mouse at 2 mg/kg, iv; format: ADME, organism-based; conditions: in vivo
[8] = Half life in mouse at 2 mg/kg, iv; format: ADME, organism-based; conditions: in vivo

Compound | Tmax [1] [h] | IC50 (Sphingosine kinase 2) [µM] | AUC(0-t) [2] [ng·h/mL] | AUC(0-t) [3] [ng·h/mL] | half-life [4] [h] | bioavailability [5] [%] | Cmax [6] [ng/mL] | clearance [7] [mL/min/kg] | half-life [8] [h]
Cc1cc(CS(=O)(=O)C2CC2)cc(OCc2ccc(CN3CCC[C@@H]3CO)cc2)c1 | 0.25 | > 10 | 100 | 201 | 1.79 | 4.95 | 83.6 | 164 | 1.79
Cc1cc(CS(=O)(=O)c2ccccc2)cc(OCc2ccc(CN(C)CCO)cc2)c1 |  | > 10 |  |  |  |  |  |  | 
